Common to all, as to type: cell-based
Test [1] concerns MDA-MB-231 (breast cancer). The experiment in a line: Antiproliferative activity (CCK-8 cell viability), MDA-MB-231. The note with it: Homo sapiens, 72 h, read-out: Antiproliferative activity in cancerous cells, MDA-MB-231 (inhibition of cell growth); for inhibition at 3.3 µM: Compound concentration: 3.3 μM; for inhibition at 10 µM: Compound concentration: 10 μM; for inhibition at 30 µM: Compound concentration: 30 μM. Here is the method:
(§1) The antiproliferative activity of a compound was determined in the following cell lines: MDA-MB-231 (breast cancer), HepG2 (liver cancer), SW480 (colon cancer), B16F10 (malignant melanoma), A431 (epidermoid carcinoma), A549 (lung adenocarcinoma), and HeLa (cervical cancer). MDA-MB-231, HepG2, SW480, B16F10, and A431 cells were cultured in Dulbecco's modified Eagle's medium (DMEM) containing 10% fetal bovine serum (FBS). HeLa cells were cultured in MEM/EBSS (MEM) containing 10% FBS. A549 cells were maintained in Kaighn's modification of Ham's F-12 medium containing 10% FBS. A Cell Counting Kit-8 (CCK-8) was used to measure the cell viability of different cells following treatment with the compound.
(§2) Briefly cells were seeded in a 96-well plate at a density of 2,000-5,000 cells/well. Following attachment, the cells were treated with the compound in media at a compound concentration of 3.3 μM, 10 μM, or 30 μM. After the cells were incubated at 37° C. for 72 h, a CCK-8 solution (10 μL) was added to each well. After incubation at 37° C. for 4 h, the absorbance value of each well was determined using a multi-well plate reader at 450 nm. The wells treated with DMSO were taken as a vehicle control. Data were also obtained similarly for all the replicates and the percentage of cell viability was determined with respect to the DMSO-treated cells. The results are summarized in Tables 2-4, wherein A represents no less than […] of cell growth; B represents no less than 30% but less than 50% inhibition of cell growth; and C represents less than 30% inhibition of cell growth.

In another test the test system is HepG2 (liver cancer). The experiment in a line: Antiproliferative activity (CCK-8 cell viability), HepG2. The note with it: Homo sapiens, 72 h, read-out: Antiproliferative activity in cancerous cells, HepG2 (inhibition of cell growth); for inhibition at 3.3 µM: Compound concentration: 3.3 μM; for inhibition at 10 µM: Compound concentration: 10 μM; for inhibition at 30 µM: Compound concentration: 30 μM. As for the experimental part:
as §1, §2

The subject of the next test is SW480 (colon cancer). The experiment in a line: Antiproliferative activity (CCK-8 cell viability), SW480. The note with it: Homo sapiens, 72 h, read-out: Antiproliferative activity in cancerous cells, SW480 (inhibition of cell growth); for inhibition at 3.3 µM: Compound concentration: 3.3 μM; for inhibition at 10 µM: Compound concentration: 10 μM; for inhibition at 30 µM: Compound concentration: 30 μM. Here is the method:
as §1, §2

In test [2] the test system is B16F10 (malignant melanoma). The experiment in a line: Antiproliferative activity (CCK-8 cell viability), B16F10. The note with it: Mus musculus, 72 h, read-out: Antiproliferative activity in cancerous cells, B16F10 (inhibition of cell growth); for inhibition at 3.3 µM: B16-F10, Compound concentration: 3.3 μM; for inhibition at 10 µM: B16-F10, Compound concentration: 10 μM; for inhibition at 30 µM: B16-F10, Compound concentration: 30 μM. As for the experimental part:
as §1, §2

Test [3] concerns A431 (epidermoid carcinoma). The experiment in a line: Antiproliferative activity (CCK-8 cell viability), A431. The note with it: Homo sapiens, 72 h, read-out: Antiproliferative activity in cancerous cells, A431 (inhibition of cell growth); for inhibition at 3.3 µM: A-431, Compound concentration: 3.3 μM; for inhibition at 10 µM: A-431, Compound concentration: 10 μM; for inhibition at 30 µM: A-431, Compound concentration: 30 μM. Here is the method: as §1, §2

The test system of test [4] is A549 (lung adenocarcinoma). The experiment in a line: Antiproliferative activity (CCK-8 cell viability), A549. The note with it: Homo sapiens, 72 h, read-out: Antiproliferative activity in cancerous cells, A549 (inhibition of cell growth); for inhibition at 3.3 µM: Compound concentration: 3.3 μM; for inhibition at 10 µM: Compound concentration: 10 μM; for inhibition at 30 µM: Compound concentration: 30 μM. As for the experimental part:
as §1, §2

Another test deals with HeLa (cervical cancer). The experiment in a line: Antiproliferative activity (CCK-8 cell viability), HeLa. The note with it: Homo sapiens, 72 h, read-out: Antiproliferative activity in cancerous cells, HELA (inhibition of cell growth); for inhibition at 3.3 µM: Compound concentration: 3.3 μM; for inhibition at 10 µM: Compound concentration: 10 μM; for inhibition at 30 µM: Compound concentration: 30 μM. Here is the method: as §1, §2

By inhibition is commonly meant the drop in the measured response relative to a control, in per cent. Regarding `COc1cc(Oc2ccc(F)cc2)ccc1/C=C1/C(C)=C(CC(=O)O)c2cc(F)ccc21` [C51, (Z)-2-(5-Fluoro-1-(4-(4-fluorophenoxy)-2-methoxybenzylidene)-2-methyl-1H-inden-3-yl)acetic acid], the inhibition at 3.3 µM in test [1] was 30 to 50%; in the test with HepG2 (liver cancer) it was < 30%; in the test on SW480 (colon cancer), 30 to 50%; in test [2] it was ≥ 50%; in test [3], ≥ 50%; in test [4], 30 to 50%. For the same molecule, in the test with HeLa (cervical cancer), the inhibition at 3.3 µM lay within 30 to 50%. In addition, the inhibition at 10 µM in test [1] is ≥ 50%; in the test on HepG2 (liver cancer), ≥ 50%; with SW480 (colon cancer) it was ≥ 50%; in test [2] it was ≥ 50%; in test [3], ≥ 50%; in test [4] it was 30 to 50%. In addition, the inhibition at 10 µM with HeLa (cervical cancer) was ≥ 50%.
For `CC1=C(CC(=O)O)c2cc(F)ccc2/C1=C/c1cccc(Oc2cccc(Cl)c2)c1` [E26, (E)-2-(1-(3-(3-Chlorophenoxy)benzylidene)-5-fluoro-2-methyl-1H-inden-3-yl)acetic acid], the inhibition at 3.3 µM (in test [1]; in the test with HepG2 (liver cancer); in the test on SW480 (colon cancer); in test [2]; in test [3]; in test [4]) was < 30% in each case. Further, the inhibition at 3.3 µM in the test with HeLa (cervical cancer) is < 30%. Moreover, the inhibition at 10 µM was < 30% in test [1]; ≥ 50% with HepG2 (liver cancer); < 30% with SW480 (colon cancer); < 30% in test [2]; ≥ 50% in test [3]; < 30% in test [4]. Moreover, in the test on HeLa (cervical cancer), the inhibition at 10 µM was ≥ 50%. For the same molecule, the inhibition at 30 µM (in test [1]; in the test on HepG2 (liver cancer); in the test on SW480 (colon cancer); in test [2]; in test [3]; in test [4]) was ≥ 50% in each case. Moreover, the inhibition at 30 µM with HeLa (cervical cancer) is ≥ 50%.
Regarding `CC(=O)CC(=O)N1CCC(Oc2ccc(/C=C3/C(C)=C(CC(=O)O)c4cc(F)ccc43)cc2)CC1` [C203, (Z)-2-(5-Fluoro-2-methyl-1-(4-((1-(3-oxobutanoyl)piperidin-4-yl)oxy)-benzylidene)-1H-inden-3-yl)acetic acid], the inhibition at 3.3 µM in test [1] is < 30%; in the test with HepG2 (liver cancer), < 30%; in the test with SW480 (colon cancer) it was < 30%; in test [2], < 30%; in test [3] it was ≥ 50%; in test [4], 30 to 50%. For the same molecule, the inhibition at 3.3 µM in the test with HeLa (cervical cancer) is < 30%. In addition, the inhibition at 10 µM in test [1] is < 30%; in the test with HepG2 (liver cancer) it was < 30%; in the test with SW480 (colon cancer), < 30%; in test [2] it was ≥ 50%; in test [3] it was ≥ 50%; in test [4] it was < 30%. Moreover, in the test on HeLa (cervical cancer), the inhibition at 10 µM is < 30%. Moreover, the inhibition at 30 µM was < 30% in test [1]; < 30% in the test with HepG2 (liver cancer); < 30% in the test with SW480 (colon cancer); ≥ 50% in test [2]; ≥ 50% in test [3]; < 30% in test [4]. In the test with HeLa (cervical cancer), the inhibition at 30 µM is < 30%.
`CC1=C(CC(=O)O)c2cc(F)ccc2/C1=C\c1cccc(C(=O)c2ccccc2)c1` [C304, (Z)-2-(1-(3-Benzoylbenzylidene)-5-fluoro-2-methyl-1H-inden-3-yl)acetic acid]: the inhibition at 3.3 µM in test [1] was < 30%; in the test with HepG2 (liver cancer) it was 30 to 50%; with SW480 (colon cancer), < 30%; in test [2], < 30%; in test [3] it was < 30%; in test [4] it was < 30%. Also, the inhibition at 3.3 µM in the test with HeLa (cervical cancer) was 30 to 50%. Also, the inhibition at 10 µM in test [1] was 30 to 50%; in the test with HepG2 (liver cancer), ≥ 50%; in the test on SW480 (colon cancer), ≥ 50%; in test [2], ≥ 50%; in test [3], 30 to 50%; in test [4] it was ≥ 50%. The inhibition at 10 µM in the test on HeLa (cervical cancer) is ≥ 50%. For the same molecule, the inhibition at 30 µM (in test [1]; in the test on HepG2 (liver cancer); in the test with SW480 (colon cancer); in test [2]; in test [3]; in test [4]) was ≥ 50% each time. The inhibition at 30 µM in the test on HeLa (cervical cancer) is ≥ 50%.
Turning to `CC1=C(CC(=O)O)c2cc(F)ccc2/C1=C\c1ccc(C(=O)c2ccc(F)cc2)cc1` [C305, (Z)-2-(5-Fluoro-1-(4-(4-fluorobenzoyl)benzylidene)-2-methyl-1H-inden-3-yl)acetic acid], the inhibition at 3.3 µM in test [1] is ≥ 50%; in the test with HepG2 (liver cancer), 30 to 50%; with SW480 (colon cancer), 30 to 50%; in test [2], < 30%; in test [3], 30 to 50%; in test [4], < 30%. For the same molecule, the inhibition at 3.3 µM with HeLa (cervical cancer) is 30 to 50%. The inhibition at 10 µM (in test [1]; in the test on HepG2 (liver cancer); in the test with SW480 (colon cancer); in test [2]; in test [3]; in test [4]) was ≥ 50% in each case. For the same molecule, the inhibition at 10 µM in the test on HeLa (cervical cancer) is ≥ 50%. Besides, the inhibition at 30 µM (in test [1]; in the test with HepG2 (liver cancer); in the test with SW480 (colon cancer); in test [2]; in test [3]; in test [4]) was ≥ 50% each time. For the same molecule, the inhibition at 30 µM with HeLa (cervical cancer) was ≥ 50%.
Turning to `CC1=C(CC(=O)O)c2cc(F)ccc2/C1=C\c1cccc(C(=O)Nc2ccc(F)cc2)c1` [B69, (Z)-2-(5-Fluoro-1-(3-((4-fluorophenyl)carbamoyl)benzylidene)-2-methyl-1H-inden-3-yl)acetic acid], the inhibition at 3.3 µM was 30 to 50% in test [1]; 30 to 50% in the test with HepG2 (liver cancer); 30 to 50% with SW480 (colon cancer); ≥ 50% in test [2]; < 30% in test [3]; < 30% in test [4]. Moreover, in the test with HeLa (cervical cancer), the inhibition at 3.3 µM is ≥ 50%. Also, the inhibition at 10 µM (in test [1]; with HepG2 (liver cancer); in the test with SW480 (colon cancer); in test [2]; in test [3]; in test [4]) was ≥ 50% each time. In addition, in the test on HeLa (cervical cancer), the inhibition at 10 µM is ≥ 50%.

Values taken from patent US20260184663A1, “INDENE COMPOUNDS, PHARMACEUTICAL COMPOSITIONS THEREOF, AND THEIR THERAPEUTIC APPLICATIONS” (NucMito Pharmaceuticals co. Ltd., priority 2022, published 2026).
